Experimental findings from patent US11667649B2, “Heteroaromatic macrocyclic ether chemotherapeutic agents” (Nuvalent, Inc., priority 2020, dated 2023) are described below.

In the test the test system is TPM3-NTRK1-wt IC50 / primary target (e.g. CD74-ROS1-wt) IC50, Ba/F3 cells. As to the kind of experiment: Cell assay TRKA selectivity (TRKA potency divided by primary target potency). It is filed as cell-based. The conditions noted are these: for TPM3-NTRK1-wt/CD74-ROS1-G2032R: TRKA selectivity ratio: TPM3-NTRK1-wt IC50 / CD74-ROS1-G2032R IC50, Ba/F3 cells; for TPM3-NTRK1-wt/CD74-ROS1-wt: TRKA selectivity ratio: TPM3-NTRK1-wt IC50 / CD74-ROS1-wt IC50, Ba/F3 cells; for TPM3-NTRK1-wt/EML4-ALK-L1196M-G1202R: TRKA selectivity ratio: TPM3-NTRK1-wt IC50 / EML4-ALK-L1196M-G1202R IC50, Ba/F3 cells; for TPM3-NTRK1-wt/EML4-ALK-wt: TRKA selectivity ratio: TPM3-NTRK1-wt IC50 / EML4-ALK-wt IC50, Ba/F3 cells. The gist of the method: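 Ratio of TRKA to primary-target cellular IC50 (e.g. TPM3-NTRK1-wt/CD74-ROS1-wt), grouped into bins A >30, B >10, C ≥1, D <1. Each IC50 came from engineered Ba/F3 fusion lines grown without IL-3, dosed for 72 h and read as CellTiter-Glo luminescence, with a four-parameter logistic fit.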

Take `C[C@H]1Oc2cc(cnc2N)-c2c(nn(C)c2C#N)Cc2cn(C)nc2-c2ccc(F)cc21` [Example 111, (19R)-22-amino-16-fluoro-4,10,19-trimethyl-20-oxa-4,5,10,11,23-pentaazapentacyclo[19.3.1.0^2,^6.0^8,^12.0^13,^18]pentacosa-1(24),2,5,8,11,13,15,17,21(25),22-decaene-3-carbonitrile]: the TPM3-NTRK1-wt/CD74-ROS1-G2032R result was “B (bin B for high selectivity, ratio>10-fold)”; the TPM3-NTRK1-wt/CD74-ROS1-wt result was “A (bin A for very high selectivity, ratio>30-fold)”; the TPM3-NTRK1-wt/EML4-ALK-L1196M-G1202R entry is reported as “C (bin C for moderate selectivity, ratio≥1)”; the TPM3-NTRK1-wt/EML4-ALK-wt entry is on record as “A (bin A for very high selectivity, ratio>30-fold)”.

In the case of `C[C@H]1Oc2cc(cnc2N)-c2c(nn(C)c2C#N)Cc2cccnc2-c2ccc(F)cc21` [Example 112, (20R)-23-amino-17-fluoro-4,20-dimethyl-21-oxa-4,5,12,24-tetraazapentacyclo[20.3.1.0^2,^6.0^8,^13.0^14,^19]hexacosa-1(25),2,5,8(13),9,11,14,16,18,22(26),23-undecaene-3-carbonitrile], the TPM3-NTRK1-wt/CD74-ROS1-G2032R result is recorded as “C (bin C for moderate selectivity, ratio≥1)”; the TPM3-NTRK1-wt/CD74-ROS1-wt result is “A (bin A for very high selectivity, ratio>30-fold)”; the TPM3-NTRK1-wt/EML4-ALK-L1196M-G1202R entry is given as “D (bin D for low selectivity, ratio<1)”; the TPM3-NTRK1-wt/EML4-ALK-wt result is listed as “A (bin A for very high selectivity, ratio>30-fold)”.

Consider `Cn1nc(C#N)c2c1Cc1cc(Cl)nn1-c1ccc(F)cc1COc1cc-2cnc1N` [Example 113, 22-amino-10-chloro-16-fluoro-5-methyl-20-oxa-4,5,11,12,23-pentaazapentacyclo[19.3.1.0^2,^6.0^8,^12.0^13,^18]pentacosa-1(24),2(6),3,8,10,13,15,17,21(25),22-decaene-3-carbonitrile], for which the TPM3-NTRK1-wt/CD74-ROS1-G2032R result is “A (bin A for very high selectivity, ratio>30-fold)”; the TPM3-NTRK1-wt/CD74-ROS1-wt entry was “A (bin A for very high selectivity, ratio>30-fold)”; the TPM3-NTRK1-wt/EML4-ALK-L1196M-G1202R entry is listed as “C (bin C for moderate selectivity, ratio≥1)”; the TPM3-NTRK1-wt/EML4-ALK-wt entry is listed as “A (bin A for very high selectivity, ratio>30-fold)”.

On to `Cc1nc2c(s1)Cc1nnn(CC3CC3)c1-c1cnc(N)c(c1)O[C@H](C)c1cc(F)ccc1-2` [Example 114, (19R)-3-(cyclopropylmethyl)-16-fluoro-10,19-dimethyl-20-oxa-9-thia-3,4,5,11,23-pentaazapentacyclo[19.3.1.0^2,^6.0^8,^12.0^13,^18]pentacosa-1(24),2(6),4,8(12),10,13,15,17,21(25),22-decaen-22-amine], for which the TPM3-NTRK1-wt/CD74-ROS1-G2032R result is “A (bin A for very high selectivity, ratio>30-fold)”; the TPM3-NTRK1-wt/CD74-ROS1-wt result is listed as “A (bin A for very high selectivity, ratio>30-fold)”; the TPM3-NTRK1-wt/EML4-ALK-L1196M-G1202R entry was “A (bin A for very high selectivity, ratio>30-fold)”; the TPM3-NTRK1-wt/EML4-ALK-wt entry is “A (bin A for very high selectivity, ratio>30-fold)”.

Consider `Cc1nc2c(s1)Cc1c(c(C#N)nn1C)-c1cnc(N)c(c1)OCc1cc(F)ccc1-2` [Example 115, 22-amino-16-fluoro-5,10-dimethyl-20-oxa-9-thia-4,5,11,23-tetraazapentacyclo[19.3.1.0^2,^6.0^8,^12.0^13,^18]pentacosa-1(24),2(6),3,8(12),10,13,15,17,21(25),22-decaene-3-carbonitrile], for which the TPM3-NTRK1-wt/CD74-ROS1-G2032R entry is recorded as “A (bin A for very high selectivity, ratio>30-fold)”; the TPM3-NTRK1-wt/CD74-ROS1-wt entry is recorded as “A (bin A for very high selectivity, ratio>30-fold)”; the TPM3-NTRK1-wt/EML4-ALK-L1196M-G1202R entry was “B (bin B for high selectivity, ratio>10-fold)”; the TPM3-NTRK1-wt/EML4-ALK-wt entry is given as “A (bin A for very high selectivity, ratio>30-fold)”.

As to `C[C@H]1Oc2cc(cnc2N)-c2c(nnn2CC2CC2)Cc2cccnc2-c2ccc(F)cc21` [Example 116, (20R)-3-(cyclopropylmethyl)-17-fluoro-20-methyl-21-oxa-3,4,5,12,24-pentaazapentacyclo[20.3.1.0^2,^6.0^8,^13.0^14,^19]hexacosa-1(25),2(6),4,8(13),9,11,14,16,18,22(26),23-undecaen-23-amine], the TPM3-NTRK1-wt/CD74-ROS1-G2032R entry is listed as “A (bin A for very high selectivity, ratio>30-fold)”; the TPM3-NTRK1-wt/CD74-ROS1-wt entry is given as “A (bin A for very high selectivity, ratio>30-fold)”; the TPM3-NTRK1-wt/EML4-ALK-L1196M-G1202R entry is “A (bin A for very high selectivity, ratio>30-fold)”; the TPM3-NTRK1-wt/EML4-ALK-wt result is listed as “A (bin A for very high selectivity, ratio>30-fold)”.

Regarding `C[C@H]1Oc2cc(cnc2N)-c2c(C#N)nn(C)c2Cc2ccccc2-c2ccc(F)cc21` [Example 117, (20R)-23-amino-17-fluoro-5,20-dimethyl-21-oxa-4,5,24-triazapentacyclo[20.3.1.0^2,^6.0^8,^13.0^14,^19]hexacosa-1(25),2(6),3,8(13),9,11,14,16,18,22(26),23-undecaene-3-carbonitrile], the TPM3-NTRK1-wt/CD74-ROS1-G2032R entry was “A (bin A for very high selectivity, ratio>30-fold)”; the TPM3-NTRK1-wt/CD74-ROS1-wt entry is given as “A (bin A for very high selectivity, ratio>30-fold)”; the TPM3-NTRK1-wt/EML4-ALK-L1196M-G1202R entry was “B (bin B for high selectivity, ratio>10-fold)”; the TPM3-NTRK1-wt/EML4-ALK-wt result is listed as “A (bin A for very high selectivity, ratio>30-fold)”.

For the molecule `CC(C)n1nc2c(c1C#N)-c1cnc(N)c(c1)O[C@H](C)c1cc(F)ccc1-n1nccc1C2` [Example 118, (19R)-22-amino-16-fluoro-19-methyl-4-(propan-2-yl)-20-oxa-4,5,11,12,23-pentaazapentacyclo[19.3.1.0^2,^6.0^8,^12.0^13,^18]pentacosa-1(24),2,5,8,10,13,15,17,21(25),22-decaene-3-carbonitrile], the TPM3-NTRK1-wt/CD74-ROS1-G2032R entry is reported as “D (bin D for low selectivity, ratio<1)”; the TPM3-NTRK1-wt/CD74-ROS1-wt result is recorded as “A (bin A for very high selectivity, ratio>30-fold)”; the TPM3-NTRK1-wt/EML4-ALK-L1196M-G1202R result is recorded as “D (bin D for low selectivity, ratio<1)”; the TPM3-NTRK1-wt/EML4-ALK-wt entry is “A (bin A for very high selectivity, ratio>30-fold)”.

As for `CCn1nc2c(c1C#N)-c1cnc(N)c(c1)O[C@H](C)c1cc(F)ccc1-n1nccc1C2` [Example 119, (19R)-22-amino-4-ethyl-16-fluoro-19-methyl-20-oxa-4,5,11,12,23-pentaazapentacyclo[19.3.1.0^2,^6.0^8,^12.0^13,^18]pentacosa-1(24),2,5,8,10,13,15,17,21(25),22-decaene-3-carbonitrile], the TPM3-NTRK1-wt/CD74-ROS1-G2032R entry is “D (bin D for low selectivity, ratio<1)”; the TPM3-NTRK1-wt/CD74-ROS1-wt entry is “A (bin A for very high selectivity, ratio>30-fold)”; the TPM3-NTRK1-wt/EML4-ALK-L1196M-G1202R entry is listed as “D (bin D for low selectivity, ratio<1)”; the TPM3-NTRK1-wt/EML4-ALK-wt result is reported as “A (bin A for very high selectivity, ratio>30-fold)”.

For the molecule `CCc1noc2c1-c1cnc(N)c(c1)O[C@H](C)c1cc(F)ccc1-c1nncn1C2` [Example 120, (19R)-3-ethyl-16-fluoro-19-methyl-5,20-dioxa-4,8,10,11,23-pentaazapentacyclo[19.3.1.0^2,^6.0^8,^12.0^13,^18]pentacosa-1(24),2(6),3,9,11,13,15,17,21(25),22-decaen-22-amine], the TPM3-NTRK1-wt/CD74-ROS1-G2032R entry is given as “C (bin C for moderate selectivity, ratio≥1)”; the TPM3-NTRK1-wt/CD74-ROS1-wt result is on record as “A (bin A for very high selectivity, ratio>30-fold)”; the TPM3-NTRK1-wt/EML4-ALK-L1196M-G1202R result is listed as “D (bin D for low selectivity, ratio<1)”; the TPM3-NTRK1-wt/EML4-ALK-wt entry is reported as “C (bin C for moderate selectivity, ratio≥1)”.
